Values quoted from earlier work as cited in patent US20250032585A1, “Effective Doses of CNP Conjugates” (Ascendis Pharma Growth Disorders A/S, priority 2021, published 2025).

What was measured:
[1] = in vivo, sc
[2] = system: pediatric patients with achondroplasia
NPR-B receptor = details: pediatric patients with achondroplasia; increase from pre-dose baseline

vosoritide
half-life [1]: 21.0 to 27.9 min
treatment difference in the change from baseline in annual growth velocity (AGV) compared to placebo ([2]; after 52 weeks of treatment): 1.57 cm/year
subjects with decreased blood pressure ([2]; human, in vivo): 13%
subjects with symptomatic episode of decreased blood pressure with vomiting and/or dizziness ([2]; human, in vivo): 3%
time of maximum urinary cGMP level post-dose (NPR-B receptor): 2 h
